Reference: article PMC6291527, “A Nanostructured Lipid System to Improve the Oral Bioavailability of Ruthenium(II) Complexes for the Treatment of Infections Caused by Mycobacterium tuberculosis” (Frontiers in Microbiology, 2018)
≈ marks a conversion by molar mass, not a printed value.

How the values were obtained:
Experiment in all cases: microbe, parasite or virus in culture
Type in all cases: cell-based, Mycobacterium tuberculosis
[1] = tested on: M. tuberculosis clinical isolate CF169; conditions: for MIC90: Mycobacterium tuberculosis, read-out: MIC90 of the Compounds, isolate CF169; for MIC90 of the Compounds, isolate CF169: REMA, CF169 resistant to INH and RIF, NL = not loaded (DMSO), L = loaded into NLS
[2] = tested on: M. tuberculosis clinical isolate CF158; conditions: for MIC90: Mycobacterium tuberculosis, read-out: MIC90 of the Compounds, isolate CF158; for MIC90 of the Compounds, isolate CF158: REMA, CF158 resistant to INH and RIF, NL = not loaded (DMSO), L = loaded into NLS
[3] = tested on: M. tuberculosis clinical isolate CF100; conditions: for MIC90: Mycobacterium tuberculosis, read-out: MIC90 of the Compounds, isolate CF100; for MIC90 of the Compounds, isolate CF100: REMA, CF100 resistant to INH, NL = not loaded (DMSO), L = loaded into NLS

Row | Compound | MIC90 [1] [µg/mL] | MIC90 [2] [µg/mL] | MIC90 [3] [µg/mL] | MIC90 of the Compounds, isolate CF169 [1] | MIC90 of the Compounds, isolate CF158 [2] | MIC90 of the Compounds, isolate CF100 [3]
1 | COc1c(N2CCNC(C)C2)c(F)cc2c(=O)c(C(=O)O)cn(C3CC3)c12 (stereo not shown) [GAT, gatifloxacin] | 1.2 (≈ 3.2 µM) | 0.2 (≈ 0.533 µM) | 0.5 (≈ 1.33 µM) |  |  | 
2 | [Ru(pic)(dppb)(bipy)]PF6 [SCAR1] |  |  |  | 2.9^∗ μg mL^-1 | 2.6^∗ μg mL^-1 | 10.9 µg/mL
3 | NCC[C@H](O)C(=O)N[C@@H]1C[C@H](N)[C@@H](O[C@H]2O[C@H](CN)[C@@H](O)[C@H](O)[C@H]2O)[C@H](O)[C@H]1O[C@H]1O[C@H](CO)[C@@H](O)[C@H](N)[C@H]1O [AMI, amikacin] | 0.6 (≈ 1.02 µM) | 0.6 (≈ 1.02 µM) | 0.7 (≈ 1.2 µM) |  |  | 
4 | NC[C@@H]1O[C@@H](O[C@H]2[C@H](O)[C@@H](O[C@H]3O[C@H](CO)[C@@H](O)[C@H](N)[C@H]3O)[C@H](N)C[C@@H]2N)[C@@H](O)[C@H](O)[C@H]1O [KAN] |  |  |  | 1.5 µg/mL | 2.8 µg/mL | 7.8 µg/mL
5 | CC1COc2c(N3CCN(C)CC3)c(F)cc3c(=O)c(C(=O)O)cn1c23 (stereo not shown) [OFL, ofloxacin] | 11.5 (≈ 31.8 µM) | 0.7 (≈ 1.94 µM) | 0.9 (≈ 2.49 µM) |  |  | 
6 | Cc1ccnc(-c2cc(C)ccn2)c1.F[P-](F)(F)(F)(F)F.O=C([O-])c1ccccn1.[Ru+2].c1ccc(P(CCCCP(c2ccccc2)c2ccccc2)c2ccccc2)cc1 [SCAR2, [Ru(pic)(dppb)(Me-bipy)]PF6] |  |  |  | 2.6^∗ μg mL^-1 | 1.6^∗ μg mL^-1 | 5.7 µg/mL
7 | [Ru(pic)(dppe)(phen)]PF6 [SCAR7] |  |  |  | 4.4 µg/mL | 3.0 µg/mL | 7.3^∗ μg mL^-1
8 | [Ru(pic)(dppb)(phen)]PF6 [SCAR4] |  |  |  | 3.0 µg/mL | 2.7 µg/mL | 5.4 µg/mL
9 | NNC(=O)c1ccncc1 [INH, isoniazid] | > 50 | > 50 | > 50 |  | >50 µg/mL | >50 µg/mL
10 | CO[C@H]1/C=C/O[C@@]2(C)Oc3c(C)c(O)c4c(O)c(c(/C=N/N5CCN(C)CC5)c(O)c4c3C2=O)NC(=O)/C(C)=C\C=C\[C@H](C)[C@H](O)[C@@H](C)[C@@H](O)[C@@H](C)[C@H](OC(C)=O)[C@@H]1C [RIF, rifampicin] | > 50 | > 50 | < 0.195 | >50 µg/mL | >50 µg/mL | 
11 | F[P-](F)(F)(F)(F)F.O=C([O-])c1ccccn1.[Ru+2].c1ccc(P(CCP(c2ccccc2)c2ccccc2)c2ccccc2)cc1.c1ccc(P(CCP(c2ccccc2)c2ccccc2)c2ccccc2)cc1 [SCAR5, cis-[Ru(pic)(dppe)2]PF6] |  |  |  | 2.9^∗ μg mL^-1 | 2.9^∗ μg mL^-1 | 5.1 µg/mL
